{"source": "patent US7141596B2", "about": "“Inhibitors of proteins that bind phosphorylated molecules” (Incyte Corporation, priority 2003, dated 2006)", "biological_target": "T1, human PTP1B catalytic domain (residues 1–298) (Homo sapiens, UniProt P18031)", "T1 construct": "The catalytic domain (residues 1–298) of human PTP1B; His tag (N); made in house; host or cells: E. coli", "T1 sequence (P18031 1-298)": "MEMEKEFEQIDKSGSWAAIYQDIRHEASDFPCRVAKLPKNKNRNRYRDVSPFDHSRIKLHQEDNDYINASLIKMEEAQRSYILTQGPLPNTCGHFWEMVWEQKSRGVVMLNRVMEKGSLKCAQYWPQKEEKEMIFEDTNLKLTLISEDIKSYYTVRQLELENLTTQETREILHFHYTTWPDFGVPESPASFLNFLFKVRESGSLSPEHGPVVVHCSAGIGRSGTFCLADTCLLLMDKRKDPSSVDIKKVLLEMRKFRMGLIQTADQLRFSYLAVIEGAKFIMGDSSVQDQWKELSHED", "assay": "hPTP1B in vitro activity assay (pNPP dephosphorylation)", "type": "biochemical", "details": "Isomer 1 compared with Isomer 2 (5S/5R diastereomers separated by chiral HPLC)", "procedure": "Compounds were serially diluted in DMSO and spotted into the assay plate. Both the enzyme and substrate were diluted into the assay buffer containing 25 mM tris-bis-propone (pH 7.0 @ rt) and 0.1 mg/ml of BSA. 40 of μL enzyme solution was added to the assay plate containing compounds and was incubated for 30 minutes. 40 μL of substrate solution was then added to the assay plate to initiate the reaction. The initial reaction rates of the dephosphorylation of p-nitrophenylphosphate to p-nitrophenol are measured by monitoring absorbance at 410 nm on a SpectraMax for 15–30 min."}
{"smiles": "O=C(O)C(F)(F)F.O=C(O)C(F)(F)F.O=C1C[C@@H](c2ccc(C[C@H](Nc3nc4cc(F)ccc4s3)c3nc4ccccc4[nH]3)cc2)S(=O)(=O)N1.O=C1C[C@H](c2ccc(C[C@H](Nc3nc4cc(F)ccc4s3)c3nc4ccccc4[nH]3)cc2)S(=O)(=O)N1", "note": "(single isomer, unassigned; isomer 1) [4.179 Isomer 1]", "values": [{"measurement": "relative biological activity of the separated diastereomers in the enzyme assay", "result": "more biologically active"}]}
